Data published in PubChem BioAssay AID1963842 (Molecular Pharmacology Branch, DTP, NCI, 2024).

Tested on: 677734-321-R-J1-PDC complex spheroid viability
Assay: Anticancer human tumor 677734-321-R-J1-PDC patient-derived soft tissue sarcoma cell line growth inhibition [POLQ]
Details: for IC50: curve of first compound; for viability, T/C: stronger effect = lower value
Description: Multicellular complex tumor spheroid response to Polymerase (POL) inhibitors (novobiocin, ART-558, RP6685) in combination with a variety of drugs and investigational agents in selected tumor cell lines
The POL inhibitors (novobiocin, ART-558, and RP6685) were evaluated both individually and in combination with standard of care and investigational anticancer small molecules within a complex spheroid model of solid tumors. . Complex spheroids include a stromal component modeled by human endothelial cells (HUVEC) and fibroblasts modeled by human mesenchymal stem cells (MSCs). The concentration ranges selected for each drug and investigational agent were based upon clinically achievable concentrations if the clinical Cmax of the agent was known.
Compounds. The drugs and investigational agents: novobiocin (NSC847541), ART-558 (NSC835418), RP-6685 (NSC848927), peposertib (NSC802822), ceralasertib (NSC780249), elimusertib (NSC800525), camonsertib (NSC841442), AZD-1390 (NSC803789), olaparib (NSC753686), talazoparib (NSC767125), rucaparib (NSC756644), sotorasib (NSC818433), MRTX-1133 (NSC836407), SN-38 (NSC673596), topotecan (NSC609699), epotoside (NSC141540), doxorubicin (NSC123127), gemcitabine (NSC613327), 5-fluorouracil (NSC19893), paclitaxel (NSC125973), vemurafenib (NSC761431), MSA-2 (NSC828583), SN-011 (NSC837082), adavosertib (NSC754352), prexasertib (NSC758257), carboplatin (NSC241240) and oxaliplatin (NSC266046), were obtained from the National Cancer Institute (NCI) Developmental Therapeutics Program Chemical Repository (21). The FDA-approved anticancer drug set is available from the Developmental Therapeutics Program at https://dtp.cancer.gov/organization/dscb/obtaining/. […] The stock solutions were prepared in dimethyl sulfoxide (DMSO, Sigma-Aldrich, St. Louis, MO, cat. D2650), except for the platinum compounds which were prepared in saline (Quality Biological, Gaithersburg, MD, cat. 114-055-101), at 800-fold the tested concentration and stored at -70 degrees C prior to their use. All drugs and investigational agents were tested over a range starting from a high concentration at or near the clinical Cmax and decreasing in half-log increments. If the clinical Cmax for an agent had not been determined, the highest concentration tested was 10 microM, except for SN-38, which was tested at a high concentration of 1 microM.
Cell Culture. All cells were maintained in an incubator at 37 degrees C and 5% CO2 with 95% humidity. The PDC lines were cultured according to standard operating procedures established by the NCI PDMR (https://pdmr.cancer.gov). Table 3 of the manuscript, lists the cell lines along with the number of the three cell types plated to form the mct-spheroids and media for tumor cell growth. After thawing, all PDC lines, except 997537-175-T-J1-PDC and 415267-285-R-J2-PDC, were cultured in Matrigel-coated flasks prepared with a working solution of 1X Ham's F-12 nutrient mix, without supplementation (Thermo Fisher Scientific, cat. 11765054), 100 U/mL penicillin-streptomycin (Thermo Fisher Scientific, cat. 15140122), and 2.5% Matrigel (Corning Inc., Corning, NY, cat. 354248) for the first three passages. The two PDC lines 997537-175-T-J1-PDC and 415267-285-R-J2-PDC were cultured on uncoated flasks. The 857933-349-R-J2-PDC line was cultured in 6C/Colon 1B media containing advanced DMEM/F-12 (Thermo Fisher Scientific, cat. 12634028), 10 mM HEPES (Thermo Fisher Scientific, cat. 15630080), 1X GlutaMAX supplement (Thermo Fisher Scientific, cat. 35050061), 0.1 mg/mL primocin (InvivoGen, San Diego, CA, cat. ant-pm-2), 10% defined fetal bovine serum, heat inactivated (HyClone Laboratories Inc., Logan, UT, cat. SH30070.03HI), 50% L-WRN conditioned media (ATCC, cat. CRL-3276), 1.25 mM N-Acetyl-L-cysteine (Sigma-Aldrich, cat. A9165), 10 mM nicotinamide (Sigma-Aldrich, cat. N0636), 1X B-27 supplement (Thermo Fisher Scientific, cat. 17504044), 1X N-2 supplement (Thermo Fisher Scientific, cat. […]

[1] = second compound 0.0316 µM, first compound 0.0316 µM
[2] = second compound 0.0316 µM, first compound 0.1 µM
[3] = second compound 0.1 µM, first compound 0.0316 µM
[4] = second compound 0.1 µM, first compound 0.1 µM
[5] = second compound 0.316 µM, first compound 0.0316 µM
[6] = second compound 0.316 µM, first compound 0.1 µM
[7] = second compound 1 µM, first compound 0.0316 µM
[8] = second compound 1 µM, first compound 0.1 µM
[9] = second compound 3.16 µM, first compound 0.0316 µM
[10] = second compound 3.16 µM, first compound 0.1 µM
[11] = second compound 10 µM, first compound 0.0316 µM
[12] = second compound 10 µM, first compound 0.1 µM
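Also: spheroids exposed to compounds for one week.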
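For viability, T/C in this document: 100% = vehicle DMSO treated spheroids.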

Cn1ncnc1[C@H]1c2n[nH]c(=O)c3cc(F)cc(c23)N[C@@H]1c1ccc(F)cc1 + Nc1ccc(C#CCN(C(=O)Cc2ncc(C(F)(F)F)cc2C(F)(F)F)c2ccc(F)cc2)nn1
IC50 (second compound 0.0316 µM): > 0.1 µM
IC50 (second compound 0.1 µM): > 0.1 µM
IC50 (second compound 0.316 µM): > 0.1 µM
IC50 (second compound 1 µM): > 0.1 µM
IC50 (second compound 3.16 µM): > 0.1 µM
IC50 (second compound 10 µM): > 0.1 µM
viability, T/C (second compound 0.0316 µM, first compound 0.000316 µM): 79.4%
viability, T/C (second compound 0.0316 µM, first compound 0.001 µM): 105%
viability, T/C (second compound 0.0316 µM, first compound 0.00316 µM): 86.2%
viability, T/C (second compound 0.0316 µM, first compound 0.01 µM): 93.1%
viability, T/C [1]: 99.6%
viability, T/C [2]: 79.8%
viability, T/C (second compound 0.1 µM, first compound 0.000316 µM): 92.4%
viability, T/C (second compound 0.1 µM, first compound 0.001 µM): 89.2%
viability, T/C (second compound 0.1 µM, first compound 0.00316 µM): 97.3%
viability, T/C (second compound 0.1 µM, first compound 0.01 µM): 100%
viability, T/C [3]: 95%
viability, T/C [4]: 88.7%
viability, T/C (second compound 0.316 µM, first compound 0.000316 µM): 113%
viability, T/C (second compound 0.316 µM, first compound 0.001 µM): 111%
viability, T/C (second compound 0.316 µM, first compound 0.00316 µM): 109%
viability, T/C (second compound 0.316 µM, first compound 0.01 µM): 97.4%
viability, T/C [5]: 75.2%
viability, T/C [6]: 72.8%
viability, T/C (second compound 1 µM, first compound 0.000316 µM): 112%
viability, T/C (second compound 1 µM, first compound 0.001 µM): 97.8%
viability, T/C (second compound 1 µM, first compound 0.00316 µM): 93.3%
viability, T/C (second compound 1 µM, first compound 0.01 µM): 95.2%
viability, T/C [7]: 85.8%
viability, T/C [8]: 68.1%
viability, T/C (second compound 3.16 µM, first compound 0.000316 µM): 108%
viability, T/C (second compound 3.16 µM, first compound 0.001 µM): 95.2%
viability, T/C (second compound 3.16 µM, first compound 0.00316 µM): 100%
viability, T/C (second compound 3.16 µM, first compound 0.01 µM): 98%
viability, T/C [9]: 99.7%
viability, T/C [10]: 93.7%
viability, T/C (second compound 10 µM, first compound 0.000316 µM): 115%
viability, T/C (second compound 10 µM, first compound 0.001 µM): 95.9%
viability, T/C (second compound 10 µM, first compound 0.00316 µM): 101%
viability, T/C (second compound 10 µM, first compound 0.01 µM): 94.1%
viability, T/C [11]: 97.9%
viability, T/C [12]: 87.2%

CC1COCCN1c1cc(-c2ccnn2C)c2ccnc(-c3ccn[nH]3)c2n1 (centres undefined) + Cc1cccc(N(C)C(=O)C2C(O)CCN2c2nc(C)cc(C(F)(F)F)c2C#N)c1
IC50 (second compound 0.0316 µM): 0.161 µM
IC50 (second compound 0.1 µM): 0.175 µM
IC50 (second compound 0.316 µM): 0.153 µM
IC50 (second compound 1 µM): 0.156 µM
IC50 (second compound 3.16 µM): 0.125 µM
IC50 (second compound 10 µM): 0.11 µM
viability, T/C [1]: 100%
viability, T/C [2]: 67.6%
viability, T/C (second compound 0.0316 µM, first compound 0.316 µM): 24.8%
viability, T/C (second compound 0.0316 µM, first compound 1 µM): 21.6%
viability, T/C (second compound 0.0316 µM, first compound 3.16 µM): 18.2%
viability, T/C (second compound 0.0316 µM, first compound 10 µM): 14.3%
viability, T/C [3]: 88.9%
viability, T/C [4]: 70.9%
viability, T/C (second compound 0.1 µM, first compound 0.316 µM): 27.8%
viability, T/C (second compound 0.1 µM, first compound 1 µM): 17.1%
viability, T/C (second compound 0.1 µM, first compound 3.16 µM): 17.4%
viability, T/C (second compound 0.1 µM, first compound 10 µM): 16.6%
viability, T/C [5]: 98.1%
viability, T/C [6]: 64.9%
viability, T/C (second compound 0.316 µM, first compound 0.316 µM): 24.2%
viability, T/C (second compound 0.316 µM, first compound 1 µM): 19.6%
viability, T/C (second compound 0.316 µM, first compound 3.16 µM): 20.3%
viability, T/C (second compound 0.316 µM, first compound 10 µM): 16.3%
viability, T/C [7]: 99.9%
viability, T/C [8]: 65.5%
viability, T/C (second compound 1 µM, first compound 0.316 µM): 25.4%
viability, T/C (second compound 1 µM, first compound 1 µM): 18.7%
viability, T/C (second compound 1 µM, first compound 3.16 µM): 18.9%
viability, T/C (second compound 1 µM, first compound 10 µM): 15.8%
viability, T/C [9]: 90.7%
viability, T/C [10]: 56%
viability, T/C (second compound 3.16 µM, first compound 0.316 µM): 25.2%
viability, T/C (second compound 3.16 µM, first compound 1 µM): 19.1%
viability, T/C (second compound 3.16 µM, first compound 3.16 µM): 16.5%
viability, T/C (second compound 3.16 µM, first compound 10 µM): 18.6%
viability, T/C [11]: 89.7%
viability, T/C [12]: 52.5%
viability, T/C (second compound 10 µM, first compound 0.316 µM): 21.7%
viability, T/C (second compound 10 µM, first compound 1 µM): 17.2%
viability, T/C (second compound 10 µM, first compound 3.16 µM): 18.4%
viability, T/C (second compound 10 µM, first compound 10 µM): 16%
